Reference: patent US12673930B2, “Thiophene HSD17B13 inhibitors and uses thereof” (INIPHARM, INC., priority 2020, dated 2026)

target: T1, HSD17B13 enzyme (Homo sapiens, UniProt Q7Z5P4); test: NADH detection assay (fluorescence based Leukotriene B3 (LTB3) assay) for HSD17B13 activity; type: biochemical; conditions: substrate 25 μM LTB3, 3 mM NAD+, 125 nM HSD17B13 enzyme, 1 hour at 26.5° C
T1 construct: His; made in house; host or cells: E. coli
T1 sequence (Q7Z5P4 20-300): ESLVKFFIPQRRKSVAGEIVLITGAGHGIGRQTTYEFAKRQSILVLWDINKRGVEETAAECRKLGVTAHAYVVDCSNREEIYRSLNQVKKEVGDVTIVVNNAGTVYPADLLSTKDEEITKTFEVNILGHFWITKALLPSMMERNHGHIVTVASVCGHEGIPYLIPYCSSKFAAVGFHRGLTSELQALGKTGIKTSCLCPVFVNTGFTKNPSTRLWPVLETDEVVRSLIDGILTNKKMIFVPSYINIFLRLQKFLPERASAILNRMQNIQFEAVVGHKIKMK
Protocol: The fluorescence based Leukotriene B3 (LTB3) assay monitors the fluorescence of NADH, which is generated from NAD+ during the dehydrogenation of the substrate LTB3. The reactions were performed in a 384-well plates (Greiner; #655076) in a 20 μl reaction volume containing the following reagents (final concentrations): 25 μM LTB3 (Cayman; #20109); 3 mM NAD^+ (Sigma; #N0623); 125 nM HSD17B13 enzyme (in-house; E. coli expressed His-tagged, purified, soluble protein); 1 M potassium phosphate buffer, pH 7.4; and 1% DMSO. Reactions were initiated by co-addition of NAD+ and enzyme, and monitored for 1 hour at 26.5° C. Generation of NADH was measured as the fluorescence signal (Excitation at 340 nm and Emission at 445 nm) at 1 hour minus the baseline fluorescence at t=0. Fluorescence signals in the absence of LTB3 (negative control values), were subtracted from all values so that the results reflected substrate-dependent production of NADH. NADH standards were included to allow the conversion of relative fluorescence units into rates of enzyme activity. Enzyme activity in the presence of test compounds was expressed as a percentage of the uninhibited enzyme activity, and plotted versus inhibitor concentration. Non-linear regression was performed using a four-parameter logistic model and Microsoft Excel Solver® software. Ten concentrations of inhibitor were tested in duplicate (in the range of 30 μM-2.5 nM). Two independent concentration response assays were performed and the geometric mean is reported, =/−the SEM.

SMILES	IC50 [nM]
O=C(Nc1ccsc1C(=O)NC1COc2ccccc2C1)c1ccc(O)c(Cl)c1 (stereo not shown) [Example 6, 3-(3-chloro-4-hydroxybenzamido)-N-(chroman-3-yl)thiophene-2-carboxamide]	≤ 1000
CC(C)(C)CCNC(=O)c1sc2cnccc2c1NC(=O)c1ccc(O)c(F)c1 [Example 19, N-(3,3-dimethylbutyl)-3-(3-fluoro-4-hydroxybenzamido)thieno[2,3-c]pyridine-2-carboxamide]	> 10000
CC(C)CNC(=O)c1sccc1NC(=O)c1ccc(O)c(Cl)c1 [Example 2, 3-(3-chloro-4-hydroxybenzamido)-N-isobutylthiophene-2-carboxamide]	≤ 1000
COc1ccccc1CCNC(=O)c1sccc1NC(=O)c1ccc(CCC(=O)O)c(F)c1 [Example 22, 3-(2-fluoro-4-((2-((2-methoxyphenethyl)carbamoyl)thiophen-3-yl)carbamoyl)phenyl) propanoic acid]	> 10000
COc1ccccc1CCNC(=O)c1sccc1NC(=O)c1cnc(O)c(Cl)c1 [Example 21, 5-chloro-6-hydroxy-N-(2-((2-methoxyphenethyl)carbamoyl)thiophen-3-yl)nicotinamide]	> 10000
COc1ccccc1CCNC(=O)c1sccc1NC(=O)c1cc(Cl)c(O)c(C(C)C)c1 [Example 23, 3-(3-chloro-4-hydroxy-5-isopropylbenzamido)-N-(2-methoxyphenethyl)thiophene-2-carboxamide]	> 10000
COc1ccccc1CCNC(=O)c1sccc1NC(=O)c1cc(Cl)c(O)c(Cl)c1 [Example 32, 3-(3,5-dichloro-4-hydroxybenzamido)-N-(2-methoxyphenethyl)thiophene-2-carboxamide]	≤ 1000
COc1ccccc1CCNC(=O)c1sccc1NC(=O)c1ccc(OCC(=O)O)c(Cl)c1 [Example 11, 2-(2-chloro-4-((2-((2-methoxyphenethyl)carbamoyl)thiophen-3-yl)carbamoyl)phenoxy)acetic acid]	> 10000

target: T1, HSD17B13 enzyme; test: LC/MS estrone detection assay (conversion of estradiol to estrone by HSD17B13); type: biochemical; conditions: substrate 4 μM estradiol, 6 mM NAD+, 30 nM HSD17B13 enzyme, 2 hours at 26.5° C
Protocol: The liquid chromatography/mass spectrometry (LC/MS) estrone detection assay monitors the conversion of estradiol to estrone by HSD17B13. This assay was performed in a 96 wp format (Eppendorf deep well Plate 96/500) in an 80 μl reaction volume containing: 4 μM estradiol (E2; Cayman; Ser. No. 10/006,315); 6 mM NAD^+ (Sigma; #N0623), and 30 nM HSD17B13 enzyme (in-house; E. coli expressed His-tagged, purified, soluble protein), in a buffer containing 1M potassium phosphate buffer pH 7.4 and 0.5% vehicle (DMSO). Reactions were incubated for 2 hours at 26.5° C., and estradiol (E2) conversion to estrone (E1) was quantitated by LC-MS/MS based analyte detection for E1 using LCMS grade reagents. Reactions were terminated by the addition of two volumes of acetonitrile (MeCN; LCMS grade; CAS #75/05/8) containing deuterated (D4)-E1 as internal standard (Clear Synth; #CS-T-54273; 500 ng/mL final concentration). Samples were applied to pre-prepared Bond Elut-C18 extraction cartridges (3 mL; Agilent; Ser. No. 12/102,028), and washed and eluted in MeCN. Eluates were dried under nitrogen and re-suspended in 60% methanol (LCMS grade methanol; CAS #67/56/1) before submission for analysis. Standard curves for E1 were included for quantification. Analysis of samples was undertaken on a XBridge BEH C18 column (Waters; #186003033) using 0.1% Diethyl Amine in MeCN (mobile phase A; DEA CAS #109-89-7) and 0.1% Diethyl Amine in milli-Q water (mobile phase B) in a 3 min gradient up to 25% B. Analytes were detected in negative mode using MRM analysis, with E2 having a RT of 1.85 min and E1 having a RT of 2 min. Activity of the enzyme in the absence of NAD^+, was subtracted from samples to yield values for specific enzyme activity. Enzyme activity in the presence of test samples was expressed as a percentage of the uninhibited enzyme activity, and plotted versus inhibitor concentration. Non-linear regression was performed using the Morrison equation (see below) for tight binding inhibitors on GraphPad Prism software (GraphPad Software, La Jolla, Calif.). All assessments were undertaken in duplicate evaluations which were pooled during the extraction process and subsequently injected as duplicates for LC-MS/MS analysis. Y=Vo*(1−((((Et+X+Q)−(((Et+X+Q)^2)−4*Et*X)^0.5))/(2*Et))) Morrison equation:
Y=Activity in the presence of inhibitor; Vo=Activity in absence of inhibitor; Et=Total enzyme concentration; X=inhibitor concentration; and Q=(Ki*(1+(S/Km))), where Ki is the inhibition constant, Km is the Michaelis constant, and S is the substrate concentration.

SMILES	IC50 [nM]
O=C(Nc1ccsc1C(=O)NC1COc2ccccc2C1)c1ccc(O)c(Cl)c1 (stereo not shown) [Example 6, 3-(3-chloro-4-hydroxybenzamido)-N-(chroman-3-yl)thiophene-2-carboxamide]	≤ 100
O=C(Nc1sc(Cl)cc1C(=O)NCCc1ccccc1F)c1ccc(O)c(F)c1 [Example 43, 5-chloro-2-(3-fluoro-4-hydroxybenzamido)-N-(2-fluorophenethyl)thiophene-3-carboxamide]	≤ 100
CN1CCN(CCNC(=O)c2sc(Cl)cc2NC(=O)c2ccc(O)c(F)c2)CC1 [Example 37, 5-chloro-3-(3-fluoro-4-hydroxybenzamido)-N-(2-(4-methylpiperazin-1-yl)ethyl)thiophene-2-carboxamide]	100 to 1000
CC(C)(C)CCNC(=O)c1sc2cnccc2c1NC(=O)c1ccc(O)c(F)c1 [Example 19, N-(3,3-dimethylbutyl)-3-(3-fluoro-4-hydroxybenzamido)thieno[2,3-c]pyridine-2-carboxamide]	100 to 1000
CC(C)CNC(=O)c1sccc1NC(=O)c1ccc(O)c(Cl)c1 [Example 2, 3-(3-chloro-4-hydroxybenzamido)-N-isobutylthiophene-2-carboxamide]	≤ 100
O=C(Nc1sc(Cl)cc1C(=O)NCCc1ccccc1OC(F)(F)F)c1ccc(O)c(F)c1 [Example 46, 5-chloro-2-(3-fluoro-4-hydroxybenzamido)-N-(2-(trifluoromethoxy)phenethyl) thiophene-3-carboxamide]	≤ 100
O=C(Nc1cc(Cl)sc1C(=O)NCCc1ccccc1C(F)(F)F)c1ccc(O)c(Cl)c1 [Example 45, 5-chloro-3-(3-chloro-4-hydroxybenzamido)-N-(2-(trifluoromethyl)phenethyl) thiophene-2-carboxamide]	≤ 100
COc1ccccc1CCNC(=O)c1c(NC(=O)c2ccc(O)c(Cl)c2)sc2c1CCN(C)C2 [Example 15, 2-(3-chloro-4-hydroxybenzamido)-N-(2-methoxyphenethyl)-6-methyl-4,5,6,7-tetrahydrothieno[2,3-c]pyridine-3-carboxamide]	100 to 1000
O=C(Nc1cc(Cl)sc1C(=O)NC1(c2ccc(F)cc2)CC1)c1cc(F)c(O)c(F)c1 [Example 35, 5-chloro-3-(3,5-difluoro-4-hydroxybenzamido)-N-(1-(4-fluorophenyl)cyclopropyl)thiophene-2-carboxamide]	≤ 100
O=C(Nc1sc(Cl)cc1C(=O)NCCc1ccccc1OC(F)(F)F)c1ccc(O)c(Cl)c1 [Example 40, 5-chloro-2-(3-chloro-4-hydroxybenzamido)-N-(2-(trifluoromethoxy)phenethyl)thiophene-3-carboxamide]	≤ 100
O=C(Nc1ccsc1C(=O)N[C@@H](CO)c1ccccc1)c1ccc(O)c(Cl)c1 [Example 49, (R)-3-(3-chloro-4-hydroxybenzamido)-N-(2-hydroxy-1-phenylethyl)thiophene-2-carboxamide]	≤ 100
O=C(Nc1cc(Cl)sc1C(=O)NCCc1ccc(F)cc1F)c1ccc(O)c(F)c1 [Example 39, 5-chloro-N-(2,4-difluorophenethyl)-3-(3-fluoro-4-hydroxybenzamido)thiophene-2-carboxamide]	≤ 100
CC(C)(C)CCNC(=O)c1sccc1NC(=O)c1cc(F)c(O)c(Cl)c1 [Example 47, 3-(3-chloro-5-fluoro-4-hydroxybenzamido)-N-(3,3-dimethylbutyl)thiophene-2-carboxamide]	≤ 100
O=C(Nc1cc(Cl)sc1C(=O)NCCc1ccc(F)cc1Cl)c1ccc(O)c(F)c1 [Example 34, 5-chloro-N-(2-chloro-4-fluorophenethyl)-3-(3-fluoro-4-hydroxybenzamido) thiophene-2-carboxamide]	100 to 1000
O=C(Nc1cc(Cl)sc1C(=O)NCCc1ccccc1C(F)(F)F)c1cc(F)c(O)c(F)c1 [Example 44, 5-chloro-3-(3,5-difluoro-4-hydroxybenzamido)-N-(2-(trifluoromethyl)phenethyl) thiophene-2-carboxamide]	≤ 100
O=C(Nc1sc(Cl)cc1C(=O)NCCN1CCOCC1)c1ccc(O)c(F)c1 [Example 41, 5-chloro-2-(3-fluoro-4-hydroxybenzamido)-N-(2-morpholinoethyl)thiophene-3-carboxamide.]	100 to 1000
O=C(Nc1cc(Cl)sc1C(=O)NCCN1CCOCC1)c1ccc(O)c(F)c1 [Example 38, 5-chloro-3-(3-fluoro-4-hydroxybenzamido)-N-(2-morpholinoethyl)thiophene-2-carboxamide]	≤ 100
CN1CCN(CCNC(=O)c2cc(Cl)sc2NC(=O)c2ccc(O)c(F)c2)CC1 [Example 42, 5-chloro-2-(3-fluoro-4-hydroxybenzamido)-N-(2-(4-methylpiperazin-1-yl)ethyl)thiophene-3-carboxamide]	1000 to 10000
O=C(Nc1ccsc1C(=O)N[C@H](CO)c1ccccc1)c1ccc(O)c(Cl)c1 [Example 48, (S)-3-(3-chloro-4-hydroxybenzamido)-N-(2-hydroxy-1-phenylethyl) thiophene-2-carboxamide]	100 to 1000
O=C(Nc1cc(Cl)sc1C(=O)NCCc1ccc(Cl)cc1Cl)c1ccc(O)c(F)c1 [Example 36, 5-chloro-N-(2,4-dichlorophenethy1)-3-(3-fluoro-4-hydroxybenzamido)thiophene-2-carboxamide]	≤ 100
